For data set [1], the system named is human embryonic kidney (HEK293) cells. To be noted: at 25 μmol L^−1; cited from earlier work. An excerpt: The inhibitory activities observed against cancer cell lines are at the same range of concentrations reported for antimicrobial activity ^6 (Figure 2b) for this family of peptides.
The subject of data set [2] is human mammary cells (MCF-7). As to the kind of experiment: MTT assay, MCF-7 cells. To be noted: 570 nm, method gives serial dilutions 0.09–50 μmol L^−1, 2 and 24 hr (time for IC50 not stated), triplicate, NO = not observed, read-out: IC50, concentration of peptide needed for killing 50% of MCF-7. Type of data set: cell-based. The protocol: (§1) Human mammary adenocarcinoma (MCF‐7) cells were maintained in RPMI 1640 medium supplemented with 10% heat inactivated fetal bovine serum and 100 μg ml^−1 penicillin/10 μg ml^−1 streptomycin. While hepatocellular carcinoma (Hep G2) cells, neuroblastoma (SHSY‐5Y) cells and melanoma (SK‐mel‐147) cells were maintained in RPMI 1640 medium supplemented with 10% heat inactivated fetal bovine serum and 100 μg ml^−1 penicillin/10 μg ml^−1 streptomycin. One day before the assays, the cells were plated in 96‐well microtiter plate with a density of 2.0 × 10^4 cells/well at 37°C and 5% CO2. On the next day, cells were treated with peptides serial dilutions (0.09–50 μmol L^−1), incubated in individual microtiter plates for 2 and 24 hr and MTT assays were performed after treatment. Human breast epithelial cells MCF‐10A (ATCC) were maintained in mixture of Dulbecco's modified Eagle's medium and Ham's F12 nutrient mixture supplemented with 5% inactivated horse serum, 10 μg ml^−1 insulin, 0.02 μg ml^−1 human epidermal growth factor, 0.5 μg ml^−1 hydrocortisone, 0.10 μg ml^−1 choleric toxin, 100 U ml^−1 penicillin, and 100 μg ml^−1 streptomycin. […]
(§2) Briefly, MTT (Sigma–Aldrich) was dissolved in water and filtered to make up a 5 μg ml^−1 solution. […] Finally, the microplates were read on an ELISA reader at 570 nm. […]

Data set [3] has as its system Plasmodium gallinaceum sporozoites. Nature of the data set: Effect of peptides on salivary gland-derived P. gallinaceum sporozoites (membrane integrity, propidium iodide fluorescence). Type of data set: cell-based. Conditions: peptides 0.39–6.25 μmol L^−1, 9000 sporozoites in 50 μl PBS, 37°C, 1 hr, fluorescence microscopy, three independent replicates. The method, then: To assess the antiplasmodial activity of Pol‐CP‐NH2 and its derivatives, the molecules were incubated with Plasmodium gallinaceum sporozoites. The avian malaria parasite, P. gallinaceum, was chosen as the plasmodium model for this study because it presents lower risk and it is highly similar ^27 , ^28 to existing Plasmodium falciparum models responsible for human malaria. ^29
FIGURE 2 Antiplasmodial activity of polybia‐CP and derivatives in vitro. […] In red, we highlight the conditions at which the peptides were not active against the Plasmodium sporozoites. Experiments were performed in three independent replicates with three repetitions for each condition
Nine thousand P. gallinaceum mature sporozoites were pulled from the salivary glands of A. aegypti and incubated in 50 μl of PBS solution, with 40 μmol L^−1 digitonin (positive control), 0.39–6.25 μmol L^−1 peptides or negative control (PBS solution), at 37°C for 1 hr. Cell membrane integrity was then observed using a Carl Zeiss inverted fluorescence microscope (model Observer Axio Vision A.1) coupled to an image capture Zeiss AxioCam HR digital camera (1,300 × 1,030 pixels resolution and 8‐bit quantization) after addition of 1 μl of the propidium iodide aqueous solution (200 μmol L^−1) in […] of total solution volume. Images were obtained using a ×40 objective lens and a green filter effect in red. […]

The test system of data set [4] is neuroblastoma cell (SH-SY5Y). As to the kind of experiment: MTT assay, SH-SY5Y cells. The format is cell-based. Conditions: 570 nm, method gives serial dilutions 0.09–50 μmol L^−1, 2 and 24 hr (time for IC50 not stated), triplicate, NO = not observed, read-out: IC50, concentration of peptide needed for killing 50% of SH-SY5Y. The protocol: as §1, §2
The subject of data set [5] is carcinoma cells of human liver (HepG2). Nature of the data set: MTT assay, HepG2 cells. Type of data set: cell-based. Conditions: 570 nm, method gives serial dilutions 0.09–50 μmol L^−1, 2 and 24 hr (time for IC50 not stated), triplicate, NO = not observed, read-out: IC50, concentration of peptide needed for killing 50% of HepG2. The protocol: as §1, §2

No end group written: not given here.

As for “ILGTILGLLKSL-NH2 [Pol-CP-NH2, Ile‐Leu‐Gly‐Thr‐Ile‐Leu‐Gly‐Leu‐Leu‐Lys‐Ser‐Leu‐NH2]”, the “toxicity against HEK293 cells” value in data set [1] is “one of the most toxic AMPs of the polybia‐CP family”. Further, the IC50 in data set [2] turned out to be 200 µM.
Turning to ILGKILGLLKSL-NH2 [[Lys]^4-Pol-CP-NH2], in data set [3], the “antiplasmodial activity (fluorescent sporozoites, membrane disrupted)” value is listed as “most active ones against Plasmodium”. Besides, the figures for the IC50 in data set [2], in data set [4] and in data set [5] were 200 µM, above 50 µM and above 50 µM, respectively.

(Values after paper PMC7510464, “The wasp venom antimicrobial peptide polybia‐CP and its synthetic derivatives display antiplasmodial and anticancer properties” (Bioengineering & Translational Medicine, 2020).)
